Data taken from PubChem BioAssay AID624134 (Broad Institute, 2012).
Several values for one entry are separate records, joined by “and”; a condition that tells them apart may be missing. Equal values may be shown once. Inconclusive results are not listed. Activity calls are given as the source filed them.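 How the source made its calls: active means signal drop with fitted half-maximal concentration no higher than twice the top valid tested concentration; inconclusive means flat curve with 30 to 70% signal loss, or poor fit; inactive means the rest, including signal rises and flat curves within 30%.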

The compounds below were run on HepG2 viability, CellTiter-Glo ATP luminescence, 48 h (assay: loss of viability in HepG2 cells – cell-based, CellTiter-Glo, cherry-picked, cytotoxicity control for Shn3 inhibitor project, dose response (AID 624134)).

Question: Which AC50 does the source give for `CC(=O)OCC12CC(OC(=O)CC(C)C)C(C)=CC1OC1C(O)C(OC(C)=O)C2(C)C12CO2` (stereo not given) here?
Answer: > 70 µM (inactive)

Question: For `CCN1CCN(Cc2ccc(NC(=O)c3cc(NC(=O)c4cc5cccc(OC)c5o4)cc(OC)c3)cc2C(F)(F)F)CC1`, which AC50 is on record?
Answer: 18.9 µM and 9.13 µM

Question: How did the AC50 turn out when `CC(=O)OC1C(=O)OCC23CCC4(C)OC4C2OC2CC(OC(=O)C=CC=CC(=O)OCCC1C)C3(C)C21CO1` (stereo not given) was run?
Answer: > 70 µM (inactive)

Question: With `CC(=O)OC[C@]12CCC(C)=C[C@H]1O[C@@H]1[C@H](O)[C@@H](OC(C)=O)[C@@]2(C)[C@]12CO2` as the compound, how does the AC50 read?
Answer: > 70 µM (inactive)

Question: With `C[C@H]1[C@@H](OS(=O)(=O)O)C[C@@H]2C[C@H]([C@@H](O)c3cc(=O)[nH]c(=O)[nH]3)NC3=NC[C@H]1N32` as the compound, how does the AC50 read?
Answer: 8.33 µM
